Measured values: US12605362B2, “Eletriptan hydrobromide for treatment of spinal cord injury and improvement of locomotor function” (TECHNOPHAGE, INVESTIGAÇÃO E DESENVOLVIMENTO EM …, priority 2020, dated 2026)
Structures can show the parent of a compound that is named as a salt.

What was measured:
[1] = test system: mice with T9 contusion type of injury; experiment: Basso Mouse Scale (BMS) open-field locomotion after T9 contusion spinal cord injury; assay type: in vivo
Description: Adult female C57BL/6J mice (8-10 weeks-old; Charles River) were used in this study. The mice were housed three to four per cage and were maintained on a 12-hour light/dark cycle with food and water ad libitum for the duration of the study.
(§1) A moderate-severe contusion-type of injury was performed on adult C57BL/6 female mice (10-12 weeks) with an Infinite Horizon Impactor (PSI)^30. All surgeries were performed under aseptic conditions. Briefly, under deep anesthesia with Ketamine and Xylazine (120 mg/kg and 16 mg/kg respectively, i.p.) mice received a dorsal laminectomy at the level of 9th thoracic vertebra (T9). After securing the lateral processes of the 8th thoracic vertebra (T8) and 10th thoracic vertebra (T10) with a stainless-steel impactor tip, a controlled force-defined impact at 75 kdyne was delivered to the exposed spinal cord^28,30. Then, muscle and skin were closed with 4.0 polyglycolic acid (PGA) absorbable sutures (Safil, G1048213). In this study, mice were excluded when the actual displacement value was outside the interval 500-700 μm or if the actual force after impact was >2SD 75 Kdyne. Immediately after injury, mice were injected subcutaneously with 0.5 ml of sterile saline and then daily for 5 days. During this experiment, mice underwent gentle bladder expression twice daily until they were voiding on their own. Weight was monitored daily until 15 days-post-injury (dpi) and then weekly for the duration of the study and a high caloric pellet (Supreme Mini-Treats™ S05478 and S05472) was provided as a dietary supplement since a 10% weight loss was typically observed in this SCI model upon injury.
The Eletriptan Hbr (Sigma-Aldrich, PZ0011) dosage used were equivalent to the human market dose^31 and all treatment dosages were aliquoted using a coded system to maintain double-blinded measures. This code was only unveiled at the end of all behavioural tests. Mice were randomly distributed to each experimental group (SCI+Vehicle and SCI+Eletriptan Hbr). Vehicle and Eletriptan Hbr were administered via intraperitoneal injection (i.p.), beginning 1 hour after injury (hpi) and then daily until 15 dpi.
Open-field locomotion was assessed with the BMS rating system^30,32. The open-field used was a round platform with 85 cm in diameter and 30.5 cm high, located in a quiet testing room with normal lighting. The mice were habituated to the testing platform for 5 minutes daily for 2 weeks before surgery. The BMS testing (BMS scoring and subscoring) was performed as previously described^28,30. Briefly, mice were tested before surgery, to obtain baseline pre-operation locomotion values, where it is expected a maximum S score value. To determine the functional recovery after treatment the BMS score of each mouse was evaluated at 1, 3, 7, 14 dpi and then weekly until the end of the experiments. The evaluation of BMS score and subscore was always performed by two raters who were blind to the treatment groups and scored hindlimb locomotion for 4 minutes per mouse. If the scores differed between raters, the final score taken was the average of both scores.
To validate the therapeutic effect of Eletriptan Hbr for SCI indication in a non-regenerative model, it was decided to test its efficacy in a SCI rodent model. Therefore, a contusion type of injury was performed in C57BL/6 female mice, using an Infinite Horizon (IH) Impactor and the Basso Mouse Scale (BMS) test^32 was used to evaluate the locomotor performance of the animals after injury. First, mice were habituated to the open-field platform and after 15 days they were injured with a moderate-severe T9 contusion (75 kdyne) (FIG. 2A). Immediately after injury and upon biomechanical exclusion criteria, mice were randomly distributed to each experimental group (SCI+Vehicle and SCI+Eletriptan Hbr). Treatment dosages (Vehicle or Eletriptan Hbr) were administered via intraperitoneal (i.p.) injection, beginning 1 hour-post-injury (1hpi), and then daily until 15 dpi (FIG. 2A). […]

[2] = test system: mice with T9 contusion type of injury; experiment: activated microglia quantification and morphology (P2Y12 / F4/80 immunohistochemistry); assay type: in vivo; conditions: 42 dpi; for number of P2Y12+ F4/80+ (activated microglia) cells: vs Vehicle
Description: as §1, with “injury. […]” for “injury.”
For immunohistochemistry in sections, OCT was removed from the cryosections using PBS (30 minutes). […] For activated microglia quantification, sections were counterstained with DAPI. […]
To quantify the activated microglia one set of spinal cord sections were stained with anti-P2Y12 (a microglia specific marker) and anti-F4/80 (a pan macrophage marker) and counterstained with […] DAPI. Z-stack compositions were acquired in a motorized inverted widefield fluorescence microscope (Zeiss Cell Observer, Carl Zeiss MicroImaging) with 20× magnification. […]

[3] = biological target: 5-HT1B (Homo sapiens, UniProt P28222); conditions: serotonin receptor agonist; cited from earlier work
5-HT1B, sequence (P28222 whole entry, species assumed): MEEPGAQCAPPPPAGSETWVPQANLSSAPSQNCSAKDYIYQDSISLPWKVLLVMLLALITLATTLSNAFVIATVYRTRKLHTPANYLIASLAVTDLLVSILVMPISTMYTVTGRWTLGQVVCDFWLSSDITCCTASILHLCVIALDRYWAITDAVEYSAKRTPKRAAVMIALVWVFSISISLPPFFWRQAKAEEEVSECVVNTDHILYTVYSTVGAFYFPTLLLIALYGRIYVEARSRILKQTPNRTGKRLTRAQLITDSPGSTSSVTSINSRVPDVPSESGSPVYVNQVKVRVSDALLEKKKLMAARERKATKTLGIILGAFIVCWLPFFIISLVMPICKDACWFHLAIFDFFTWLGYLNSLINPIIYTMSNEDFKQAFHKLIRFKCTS

[4] = biological target: 5-HT1D (Homo sapiens, UniProt P28221); conditions: serotonin receptor agonist; cited from earlier work
5-HT1D, sequence (P28221 whole entry, species assumed): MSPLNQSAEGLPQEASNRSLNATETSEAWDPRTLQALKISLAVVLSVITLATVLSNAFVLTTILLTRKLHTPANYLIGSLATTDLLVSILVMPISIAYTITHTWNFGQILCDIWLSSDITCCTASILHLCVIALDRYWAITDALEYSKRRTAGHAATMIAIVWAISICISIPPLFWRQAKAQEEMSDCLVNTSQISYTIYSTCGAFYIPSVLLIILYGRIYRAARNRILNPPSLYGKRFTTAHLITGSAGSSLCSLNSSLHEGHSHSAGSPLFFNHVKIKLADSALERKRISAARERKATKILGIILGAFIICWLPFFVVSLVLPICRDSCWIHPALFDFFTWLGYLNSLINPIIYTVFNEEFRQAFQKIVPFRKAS

CN1CCC[C@@H]1Cc1c[nH]c2ccc(CCS(=O)(=O)c3ccccc3)cc12 [Eletriptan Hbr, Eletriptan Hydrobromide]
animals that acquired a mild trunk stability ([1]; 42 dpi): 46%
mice with frequent plantar stepping with parallel placement of both hindlimb paws at initial contact ([1]; 42 dpi): 85%
mice with parallel placement of at least one of the hindlimb paws at lift off ([1]; 42 dpi): 23%
events that block the walking movement such as spasms and but downs ([1]; 42 dpi, observed during BMS testing, vs Vehicle): less events
mice that achieved a BMS score of 5 (frequent or consistent plantar stepping) ([1]; 42 dpi, of thirteen treated mice): twelve
mice that achieved a BMS score of 6 (frequent plantar stepping with some fore-hindlimb coordination) ([1]; 42 dpi, thirteen treated mice): one out of thirteen
average BMS subscores compared to Vehicle-treated mice ([1]; from 7 to 42 dpi): consistently higher
average BMS subscores compared to Vehicle-treated mice ([1]; from 35 dpi to 42 dpi): significantly higher
time at which average BMS scores reached a plateau ([1]; i.p. from 1 hpi, daily until 15 dpi): 28-35 dpi
BMS scores over time compared to Vehicle-treated mice ([1]; i.p. from 1 hpi, daily until 15 dpi, 1 to 42 dpi): consistently but not significantly higher
number of P2Y12+ F4/80+ (activated microglia) cells [2]: no statistically significant differences
number of P2Y12+ F4/80+ (activated microglia) cells ([2]; at 400 μm rostrally and caudally to the epicentre): consistently higher
P2Y12+ microglia morphology ([2]; sections near or at the epicentre, feature not observed in Vehicle-treated mice): longer, ramified processes were also observed
affinity [3]: high affinity
affinity [4]: high affinity
